Data as given in ChEMBL document CHEMBL3507680, “University of Dundee, Gates Library screen for HepG2 cell viability”.

Assay: Human HepG2 cell viability assay in 384 well format
Assay type: toxicity, cell-based
Design: dose 125 nL, time 70.5 hour; concentration not given beside the values
Conditions: HepG2 cells, read-out: Inhibition

Row | Compound | cytotoxicity at 70.5 h [%]
1 | Cc1nc(CNC(=O)c2oc3ccccc3c2CN(C)C)oc1C | -8.24
2 | Cc1nc(C2CCCN2C(=O)COCCOc2ccccc2)no1 (stereo not drawn) | 8.74
3 | N#CCSCCCN1CCCC(C(=O)N2CCCCCC2)C1 (stereo not drawn) | -4.07
4 | Cc1nc(C2CCCN2C(=O)CCCOc2cccc(F)c2)no1 (stereo not drawn) | -4.99
5 | Cn1cc(CN2CCN(Cc3nccn3C)CC2)cn1 | 29.1
6 | CC(C)c1csc(C2CCCN(C(=O)c3ccc(=O)n(C)n3)C2)n1 (stereo not drawn) | 1.7
7 | CCn1c(C)nnc1CN(C)C1CCN(Cc2cnc(C)cn2)C1 (stereo not drawn) | -0.885
8 | Cc1ccc(CNCc2nnc3n2CC(C(F)(F)F)CC3)cc1 (stereo not drawn) | 1.57
9 | COc1ccccc1CNC(=O)C1=NN(c2ccc(C)cc2)C(=O)CN1 | -4.66
10 | Cc1noc(C2CCN(C(=O)c3c(C)noc3C)CC2)n1 | -10.7
11 | CC(O)CN1CCN(C(=O)c2cn(-c3ccccc3Cl)nn2)CC1 (stereo not drawn) | -9.71
12 | CC(NC1(CNC(=O)CC(C)(C)C)CCOCC1)c1ccccc1 (stereo not drawn) | -7.83
13 | CC(NC1(CNC(=O)Cn2cccn2)CCOCC1)c1ccccc1 (stereo not drawn) | -6.45
14 | CCc1nc(CN2CCN(C(=O)COCc3ccccc3)CC2)no1 | -7.36
15 | Cc1cc(C)n(-c2cncc(NCCNC(=O)C(C)C)n2)n1 | -3.05
16 | Cc1ccc(NC(=O)NC(C)c2nc[nH]n2)s1 (stereo not drawn) | -8.03
17 | Cc1ccc(C2CSCCN2C(=O)C2=CCCC2)o1 (stereo not drawn) | -6.86
18 | COc1ccc(NC(=O)NC(C)c2nc[nH]n2)cc1 (stereo not drawn) | -0.0192
19 | O=c1ccc(-c2ccccc2F)nn1CCN1CCCS1(=O)=O | -2.96
20 | Cc1cc(CN(C)Cc2cc3c(cc2OC(F)F)OCO3)on1 | -6.95
21 | CN(Cc1cc2c(cc1OC(F)F)OCO2)Cc1nccn1C | -3.97
22 | CCC(C)(NCC(=O)Nc1ccccc1)c1nc(C)cs1 (stereo not drawn) | -4.87
23 | Cc1nn(C)c(N(C)C)c1CNCc1cccnc1 | 16.2
24 | Cn1cc(CNCCn2cccn2)c(-c2cccnc2)n1 | -4.81

Row | Compound | cytotoxicity at 70.5 h [%]
25 | CN(CC1CC1)C(=O)CN(Cc1cccc(O)c1)C1CCC(O)CC1 (stereo not drawn) | -6.77
26 | Cn1ncc2c(NCC3CCCN3c3cccnn3)ncnc21 (stereo not drawn) | -3.62
27 | O=C(CCc1ccccc1F)NS(=O)(=O)c1ccc2c(c1)OCCO2 | 21.2
28 | COCc1nc(C(=O)N2CCCC2c2ccncc2)cs1 (stereo not drawn) | -1.03
29 | COc1ccccc1OCCNCCn1cccn1 | -10.7
30 | Cc1cnn(CC(C)NCc2csc(-c3cccs3)n2)c1 (stereo not drawn) | -22.3
31 | Clc1ccc(OCCNCCn2cccn2)cc1 | 22.1
32 | COCc1nc(C(=O)N2CCCC2c2cccc(C)c2)cs1 (stereo not drawn) | -8.14
33 | Cc1ccc(-c2nc(CN3CCN(C(=O)C4CC4)CC3)cs2)o1 | -5.72
34 | Cc1ccc(-c2nc(CN3CCN(CC(=O)N(C)C)CC3)cs2)o1 | -5.37
35 | CC(NC(=O)NCCCN(C)S(C)(=O)=O)c1ccc(F)cc1 (stereo not drawn) | 16.8
36 | CCOC(=O)C1CCN(Cc2csc(-c3ccc(C)o3)n2)CC1 | -3.12
37 | COc1c(CNCc2ccnc(N3CCCCC3)c2)c(C)nn1C | 24.3
38 | Cc1ccc(C(=O)N2CCC(c3n[nH]c(C4CC4)n3)CC2)cc1F | -7.97
39 | CN(C)CC(=O)N1CCN(C(=O)c2cccc3[nH]ncc23)CC1 | -8.09
40 | CCc1cccc(N2CCC(NC(=O)c3ccncc3)CC2)c1 | -4.49
41 | Cc1cccc(C(=O)N2CCN(C(=O)Cc3ccccn3)CC2)c1C | -2.92
42 | CCc1nc(CN2CCN(CC(O)c3ccccc3)CC2)no1 (stereo not drawn) | 17.3
43 | CCc1noc(CN2CCN(CC(O)c3ccccc3)CC2)n1 (stereo not drawn) | -3.73
44 | CC(C)c1nc(CN2CCN(CC(O)c3ccccc3)CC2)no1 (stereo not drawn) | -4.77
45 | Cc1cnn(CC(C)NCc2csc(-c3ncccn3)n2)c1 (stereo not drawn) | -2.17
46 | CCc1cccc(N2CCC(NC(=O)CCNC(N)=O)CC2)c1 | -6.16
47 | Cc1ccc(NC2CCN(C(=O)COc3cccc(F)c3)CC2)nn1 | 43.9
48 | Cc1nccn1C1CCCN(C(=O)c2ccnc(-n3ccnc3)c2)C1 (stereo not drawn) | 10.7

Row | Compound | cytotoxicity at 70.5 h [%]
49 | O=C(CCc1ccco1)N1CCCN(Cc2cscn2)CC1 | 11.4
50 | COc1cccc(NC(=O)NCC(O)c2ccc(F)cc2F)c1 (stereo not drawn) | -6.35
51 | CC1CCCN(S(=O)(=O)NCc2ccccc2Cn2cncn2)C1 (stereo not drawn) | -10.6
52 | CNC(=O)N1CCC(NC(=O)c2cnn(C)c2)CC1 | -11.2
53 | COc1cc(/C=C/c2ncc(C(=O)O)s2)cc(Cl)c1OC | 18.2
54 | CCOc1c(Cl)cc(/C=C/c2ncc(C(=O)O)s2)cc1OC | -18.4
55 | CCc1noc(CN2CCC(C(=O)Nc3cnn(CC)c3)CC2)n1 | -10.6
56 | CCCc1noc(CN2CCC(C(=O)Nc3cnn(CC)c3)CC2)n1 | -14.6
57 | O=C(c1ccnc(-n2ccnc2)c1)N1CCCC(n2ccnc2)C1 (stereo not drawn) | -15
58 | Cc1nc(C)n(CC2CCCN2CC(=O)Nc2cc(C)on2)n1 (stereo not drawn) | -8.96
59 | Cc1nc(C)n(CC2CCCCN2CC(=O)Nc2cc(C)on2)n1 (stereo not drawn) | -13.4
60 | Cc1ccc(NC2CCN(C(=O)CCOCC(F)(F)F)CC2)nn1 | -2.83
61 | Cc1cc(NC(=O)CCN2CCCCC2Cn2cncn2)no1 (stereo not drawn) | -15.1
62 | Cc1cc(C)n(CC2CCCCN2CCC(=O)Nc2cc(C)on2)n1 (stereo not drawn) | -10.3
63 | Cc1nn(C)c(Cl)c1C1CCCN1CC(=O)NCc1ccco1 (stereo not drawn) | -8.19
64 | Cc1cnc(C(=O)N2CCCC(n3cncn3)C2)cn1 (stereo not drawn) | -4.15
65 | CC(=O)Nc1nc(C(=O)N2CCCC(n3cncn3)C2)cs1 (stereo not drawn) | -11.2
66 | Cn1cc(C(=O)CC2CCCN2C(=O)c2coc3ccccc23)cn1 (stereo not drawn) | -12.8
67 | Cn1cc(C(=O)CC2CCCN2C(=O)c2c[nH]c3ccccc23)cn1 (stereo not drawn) | -13.9
68 | Cn1cc(C(=O)CC2CCCN2C(=O)c2ccncc2F)cn1 (stereo not drawn) | -9.05
69 | Cc1nc(C)n(CC2CCCN(CCC(=O)Nc3cc(C)on3)C2)n1 (stereo not drawn) | -9.8
70 | Cc1cnn(C2CCCN(C(=O)c3ccnc(-n4cncn4)c3)C2)c1 (stereo not drawn) | -7.22
71 | COCCOc1ccccc1C(=O)NCCN(C)C(C)C | 16.8
72 | CC(C)N1CCN(C(=O)C(C)n2cncn2)CC1 (stereo not drawn) | 5.67

Row | Compound | cytotoxicity at 70.5 h [%]
73 | CC(C(=O)N1CCN(c2ncccn2)CC1)n1cncn1 (stereo not drawn) | -9.39
74 | CC(C(=O)N1CCOCC1)n1cncn1 (stereo not drawn) | -4.26
75 | Cc1ccc(-c2cnn(CC(=O)NC(C)C)c2)cc1 | -3.29
76 | COc1cc(CNCC2CNc3ccnn3C2)ccn1 (stereo not drawn) | -3.41
77 | c1cc(CNCC2CNc3ccnn3C2)cc(OC2CCCCC2)n1 (stereo not drawn) | -7.62
78 | Cc1cnn(CCC(=O)N2CCN(c3ccc(C#N)cn3)CC2)c1 | -3.08
79 | Cc1cc(C2CCCN2C(=O)NCc2c(C)cc(C)[nH]c2=O)on1 (stereo not drawn) | -7.29
80 | Cc1cc(C)c(CNC(=O)N2CCCC2c2cc(C)on2)c(=O)[nH]1 (stereo not drawn) | -7.12
81 | N#Cc1cccnc1N1CCCN(C(=O)CCn2cncn2)CC1 | -4.22
82 | CCN(CCNC(=O)c1cccc(C)c1C)C1CC1 | -4.1
83 | CC(C)Oc1ccccc1NC(=O)N1CCC(n2cncn2)CC1 | -3.08
84 | O=C1NCC(C(=O)Nc2ncc(Cc3ccc(F)cc3F)s2)N1 (stereo not drawn) | -3.7
85 | Cc1nccn1C1CCCN(C(=O)CCCNc2ncccn2)C1 (stereo not drawn) | -6.43
86 | CC1CN(C(=O)NCCNc2cnccn2)CCO1 (stereo not drawn) | 25.6
87 | CC(C)(C)c1cnc(CN2CCCC2Cn2cccn2)o1 (stereo not drawn) | -5.71
88 | Cc1nc(C)n(CC2CCCCN2CC(=O)Nc2ccncc2)n1 (stereo not drawn) | 16.8
89 | N#Cc1ccc(OCCN2CCc3c(ncn3C3CC3)C2)cc1 | 8.16
90 | CCc1nc(CN2CCCN(C(=O)C(C)COC)CC2)cs1 (stereo not drawn) | -2.68
91 | CCS(=O)(=O)c1ccccc1C(=O)NCc1ccnc(N(C)C)c1 | -11.2
92 | O=C(Cc1ccc2c(c1)OCCO2)NC1CCCC1 | 10.8
93 | COc1ncccc1NC(=O)C1CCN(S(C)(=O)=O)CC1 | -9.19
94 | CN(C)c1cc(CNC(=O)c2ccc(F)cc2F)ccn1 | -10.5
95 | CC(NC(=O)c1cccs1)C(=O)NCc1cccnc1N1CCCCC1 (stereo not drawn) | -16.1
96 | Cc1ncsc1C(=O)NC1CCN(Cc2cccnc2)CC1 | 0.341

Row | Compound | cytotoxicity at 70.5 h [%]
97 | CCc1nnc2n1CCN(CCS(=O)(=O)c1ccccc1)C2 | -11.4
98 | Cc1nnc2n1CCN(CCS(=O)(=O)c1ccccc1)C2 | -9.06
99 | Cc1nc(C)n(CC2CCCCN2CC(=O)NC2CCOCC2)n1 (stereo not drawn) | -5.93
100 | CCc1nc(CN2CCCN(C(=O)C(C)n3cncn3)CC2)cs1 (stereo not drawn) | -8.34
101 | CCc1nc(CN2CCCN(C(=O)C(C)n3ccnc3)CC2)cs1 (stereo not drawn) | -9
102 | CC(NC(=O)NCc1cccnc1N1CCCCC1)c1nccs1 (stereo not drawn) | -4.81
103 | CC(O)CN1CCN(C(=O)c2ccn(-c3cccc(Cl)c3)n2)CC1 (stereo not drawn) | 13.7
104 | CSCc1cccc(C(=O)N2CCN(CC(C)O)CC2)c1 (stereo not drawn) | -14.6
105 | COc1ccc(C(C)N2CCN(Cc3nccn3C)CC2)cc1Cl (stereo not drawn) | -6.8
106 | Cc1cc(C)n(C2CN(CC(O)COc3ccc(F)cc3)C2)n1 (stereo not drawn) | -16.7
107 | Cc1cccnc1CNc1cc(N2CCCC2CO)ncn1 (stereo not drawn) | -8.44
108 | Cn1c(C2CC2)nc2c1CCN(CCOc1ccc(C#N)cc1)C2 | -9.07
109 | CC(C)c1cc(NC(=O)CN2CCc3c(nc(C(C)C)n3C)C2)on1 | -15
110 | CCc1nc(CN(C)C2CCN(CCNS(=O)(=O)CC)C2)no1 (stereo not drawn) | 46.2
111 | FC(F)(F)Cn1ccnc1CN1CCCC1c1noc(C2CC2)n1 (stereo not drawn) | -0.904
112 | CN(Cc1nnc(C2CC2)o1)C1CCN(CCCc2cnn(C)c2)C1 (stereo not drawn) | 6.71
113 | CCc1nc(CN(C)C2CCN(CCS(C)(=O)=O)C2)no1 (stereo not drawn) | 2.72
114 | CCc1nc(CN(C)C2CCN(CCc3ccccn3)C2)no1 (stereo not drawn) | 3.72
115 | Fc1cccc(-c2nc(CN3CCn4c(nnc4C4CC4)C3)co2)c1 | -8.24
116 | Cc1nn2cccnc2c1C(=O)N1CCCC(n2ccnc2)C1 (stereo not drawn) | -4.78
117 | CC(C)c1noc(CCC(=O)NCC2CCS(=O)(=O)C2)n1 (stereo not drawn) | 1.64
118 | O=C(NCc1cc[nH]n1)NCC(O)c1ccc(F)cc1F (stereo not drawn) | -9.36
